Measured values: article PMC9653453, “Development of truncated elastin-like peptide analogues with improved temperature-response and self-assembling properties” (Scientific Reports, 2022)
Values joined by “and” are separate entries in the source; they are usually repeats but may differ in a detail not shown here. Identical values can stand only once. Ends that are not written are not given here.

Tests used:
[1] = Turbidity measurement (phase transition temperature Tt, coacervation) in phosphate buffer pH 7.4; assay type: physicochemical; settings: for Coacervation on heating (in words): peptide 50 mg/mL (69.5 mM); for Tt, phase transition temperature: heating 0.5 ℃/min from 5 ℃, mean ± SE, at least three measurements
Procedure: Turbidity measurements were performed in accordance with previous reports. The temperature-dependent self-assembling properties of the ELP analogues were evaluated using a JASCO V-660 spectral photometer (JASCO Co., Tokyo, Japan). Peptide sample solutions of different concentrations (2.0, 5.0, 10, 20, 30, or 50 mg/mL) were prepared by dissolving each peptide (except for AADAAC-(FPGV)n) in phosphate buffer (27.4 mM Na2HPO4, 17.8 mM NaH2PO4, pH 7.4). AADAAC-(FPGV)4 was dissolved in Tris–HCl buffer solution (50.0 mM Tris, at pH 8.4 or 50.0 mM Tris, 154 mM NaCl, at pH 8.4) to prepare sample solutions of a concentration of 0.5 or 10 mg/mL in the absence or presence of the equimolar amount of CdCl2. Turbidity was measured at 400 nm with increasing or decreasing temperature at a rate of 0.5 ℃/min from 5 ℃. The concentration of each sample solution was measured at least three times. The self-assembling property was described by the phase transition temperature (Tt), which is the temperature at which the turbidity of the solution reaches half the maximum value.

[2] = RP-UPLC retention time, used as measure of peptide hydrophobicity; assay type: physicochemical; settings: RP-UPLC-MS; chromatographic
Procedure: Peptide synthesis was carried out using the conventional solid-phase peptide synthesis procedure (see supplementary information). The synthesized peptides were purified using RP-HPLC. The purity and molecular weight of each peptide were confirmed using RP-UPLC-MS (Table S1 and Fig. S1). […]
Retention times of each peptide were determined by RP-UPLC-MS.

[3] = Dynamic light scattering (DLS) size distribution of coacervates; assay type: physicochemical; settings: phosphate buffer pH 7.4; for Temperature-dependent particle size by DLS (in words): 10 to 50 ℃ in 10 ℃ steps, peptide concentrations as in Fig. 3 (2.0-50 mg/mL); for Hydrodynamic diameter (DLS): peptide 10 mg/mL, filtered 0.2 µm
Procedure: The distribution of the particle size in the truncated ELP analogue solution was analyzed via DLS using Zetasizernano ZS (Malvern Instruments Ltd., Worcestershire, U.K.) in a measurement cell ZEN0112 (Malvern Instruments Ltd.)[33]. Peptide samples of different concentrations (2.0, 10, 20, 30, or 50 mg/mL) were prepared by dissolving each peptide in phosphate buffer (27.4 mM Na2HPO4, 17.8 mM NaH2PO4, pH 7.4) and filtered using the Millex-LG filter (pore size 0.2 µm, Merck Millipore) before measurement. DLS analysis was performed by increasing the temperature at 10 ℃ intervals from 10 to 50 ℃. Measurement duration was selected automatically. Parameter dataset “protein” (dataset: refractive index, 1.450; absorption, 0.001) was used as the material parameter, and parameter dataset “water” (dataset: refractive index, 1.330; viscosity, 0.8872) was chosen as the dispersant parameter. Attenuation was selected automatically. Each concentration was measured at least three times.

[4] = Optical microscopy of peptide aggregates with image analysis of particle size; assay type: physicochemical; settings: peptide 10 mg/mL, phosphate buffer pH 7.4
Procedure: The morphology of the coacervates of (FPGVG)4, (FPGV)4, and (FPG)4 was observed using optical microscopy. Light field observation was performed using a Leica DM IL LED microscope (Leica Microsystems CMS, Wetzlar, Germany) equipped with HI PLAN 40 × (Leica Microsystems CMS) and HC PLAN 10 × (Leica Microsystems CMS) objectives. Each peptide was dissolved in phosphate buffer (27.4 mM Na2HPO4, 17.8 mM NaH2PO4, at pH 7.4) to a concentration of 10 mg/mL and applied on a glass slide. Sample imaging was performed below and above the Tt of each peptide using a Thermo Plate TP-CHSQM (Tokai Hit Co., Ltd., Shizuoka, Japan). Sample images above Tt were taken 3 min after the sample reached the target temperature. The details of the image analysis is shown in the Supplementary Information file.
Size distribution of coacervates of ELP analogues formed above the Tt was analyzed using optical microscopy images of each peptide. Image analysis was performed using Image J/Fiji (NIH, USA), an open-source image analysis software.^2 Spatial calibration was carried out using […] in original images. The images of peptide coacervates were converted to a binary image via the menu command Image > Type > 8-bit. Using "analyze particle" command, the Feret diameters of the particles within the image were measured.

[5] = Colorimetric (xylenol orange) determination of Cd^2+ removal by peptide coacervation; settings: peptide 1.0 mg/mL, mean ± SE
Procedure: Colorimetric analyses of cadmium ions (Cd^2+) were carried out to evaluate the number of metal ions absorbed into the coacervation phase of the peptides by using a spectral photometer (JASCO V-660)[45]. […] The peptide solutions were incubated at 4 ℃ for 3, 6, or 12 h and then at 60 ℃ for 1.5 h to separate into the lower coacervation phase from the upper equilibrium solution phase. After incubation, the peptide solution was immediately centrifuged at room temperature for 2 min (6,200 rpm) to remove aggregates. An aliquot of 333 µL of supernatant of the equilibrium solution phase was added to 600 µL of acetate buffer solution (pH5.4) including 67 μM of XO and incubated for 10 min. Subsequently, the concentrations of Cd^2+ or Zn^2+ were determined by measuring the absorbance at 575 nm or 550 nm, respectively, which corresponds to the absorbance of the metal-XO complex. The amount of metal ions absorbed in the peptide solution was determined by the calibration line, which was prepared in the same manner by using a series of standard CdCl2 or ZnCl2 aqueous solutions of known concentrations. The homogeneity of variances between the concentration of each metal ion in the supernatant and the control solution was confirmed using the F test. The statistical significance of the difference between the concentration of each metal ion in the supernatant and the control solution was determined using the Student's t-test. Results were considered statistically significant at P values of ≤ 0.01.

[6] = Turbidity measurement (phase transition temperature Tt, coacervation) in phosphate buffer pH 7.4; assay type: physicochemical; settings: peptide 1.0 mg/mL, turbidity at 400 nm, heating 0.5 ℃/min from 5 ℃, half-maximal turbidity, mean ± SE, at least three measurements
[7] = phosphate buffer pH 7.4, turbidity at 400 nm
[8] = peptide 10 mg/mL, phosphate buffer (27.4 mM Na2HPO4, 17.8 mM NaH2PO4, pH 7.4), turbidity at 400 nm, Tt = temperature at half-maximal turbidity
[9] = peptide 5.0 mg/mL, phosphate buffer pH 7.4, turbidity at 400 nm, half-maximal turbidity
[10] = peptide 2.0 mg/mL, phosphate buffer pH 7.4, turbidity at 400 nm, half-maximal turbidity

Row | UPLC retention time (measure of hydrophobicity) [2] [min] | Tt, phase transition temperature [1, 8] [°C] | Tt, phase transition temperature [1, 9] [°C] | Substance | Temperature-dependent particle size by DLS (in words) [3] | other results
1 | 0.466 |  |  | FPGVFPG-NH2 [(FPGV)(FPG)] | did not show micrometer-sized particles | Coacervation on heating (in words) [1, 7]: did not show coacervation
2 | 2.493 | 45.3 ± 0.6 |  | VFPGVFPGVFPGVFPG-NH2 [(VFPG)4, H-(VFPG)n-NH2 (n = 4)] |  | 
3 | 0.583 |  |  | FPGVFPGV-NH2 [(FPGV)2] | did not show micrometer-sized particles | Turbidity change / coacervation on heating (in words) ([1]; peptide 30 mg/mL (36.7 mM), phosphate buffer pH 7.4, turbidity at 400 nm): did not exhibit turbidity change
4 | 1.739 | 45.2 ± 0.9 | 71.6 ± 0.8 | FPGVFPGVFPGV-NH2 [(FPGV)3] | formed sub-micron particles below Tt, which grew into micrometer-sized particles above Tt | 
5 | 1.835 |  |  | FPGFPGFPGFPG-NH2 [(FPG)4, H-(FPG)4-NH2] | formed irreversible aggregates in the aqueous solution at 10 °C | Aggregation behaviour in aqueous solution (in words) ([1]; peptide 10 mg/mL, aqueous solution / phosphate buffer pH 7.4, with elapsed time without a temperature rise): formed irreversible aggregates; Morphology of aggregates (optical microscopy, in words) [4]: filamentous aggregates
6 | 2.691 | 20.5 ± 0.1 | 25.6 ± 1.2 | FPGVGFPGVGFPGVGFPGVGFPGVG-NH2 [(FPGVG)5, reference compound] |  | Tt, phase transition temperature [1, 10]: 39.0 ± 0.2 °C; Hydrodynamic diameter (DLS) ([3]; at 10 ℃, Zetasizer cumulant fit): approximately 3 nm; Hydrodynamic diameter (DLS) ([3]; at temperatures above 20 ℃): 3–5 µm; Tt, phase transition temperature [6]: 56.6 ± 1.3 °C
7 | 0.760 |  |  | FPGFPGV-NH2 [(FPG)(FPGV), H-(FPG)(FPGV)-NH2] | did not show micrometer-sized particles | Coacervation on heating (in words) [1, 7]: did not show coacervation

Row | Substance | UPLC retention time (measure of hydrophobicity) [2] [min] | Tt, phase transition temperature [1, 8] [°C] | Tt, phase transition temperature [1, 9] [°C] | Temperature-dependent particle size by DLS (in words) [3] | other results
8 | FPGVFPGVFPGVFPGV-NH2 [(FPGV)4] | 2.431 | 17.0 ± 0.2 | 23.4 ± 0.1 | rapidly formed micrometer-sized particles at 20 °C | Tt, phase transition temperature [1, 10]: 36.7 ± 0.3 °C; Morphology of aggregates (optical microscopy, in words) [4]: spherical aggregates; Particle size of coacervates (optical microscopy image analysis, Feret diameter) ([4]; above Tt ((FPGVG)4 40 °C, (FPGV)4 25 °C), ImageJ/Fiji): 2–4 µm; Concentration of metal ion in the supernatant ([5]; Cd^2+ (0.236 mM CdCl2), incubation 12 h at 4 ℃ then 60 ℃ 1.5 h, Tris-HCl (50.0 mM Tris, 599 mM NaCl, pH 8.0), at least three measurements): 19.0 ± 0.97 ppm; Removal efficiency ([5]; Cd^2+, incubation 12 h, versus control without peptide): 27.2% and 27.2 ± 0.04%; Tt, phase transition temperature [6]: 51.3 ± 0.1 °C
